# According to patent US12551499B2 (Atea Pharmaceuticals, Inc., priority 2020, dated 2026):
# Where two headings read alike, the source gives them in different places.
# How the values were obtained:
# in vitro = details: human
# SARS-CoV-2 (WA1) = test: Virus yield reduction assay, SARS-CoV-2 in dNHBE / HAE cells; format: cell-based
# Protocol: The antiviral activity of Compound 1A was next evaluated against SARS-CoV-2 (WA1) using differentiated normal human bronchial epithelial (dNHBE; HAE (human airway epithelial) cells made to order by MatTek Corporation (Ashland, MA).
# Cell Culture: dNHBE cells were grown on 6 mm mesh disks and arrived in kits with either 12- or 24-well transwell inserts. During transportation the tissues were stabilized on a sheet of agarose, which was removed upon receipt. One insert was estimated to consist of approximately 1.2×10^6 cells. Kits of cell inserts (EpiAirway™ AIR-100, AIR-112) originated from a single donor, #9831, a healthy, non-smoking person. The cells have unique properties in forming layers, the apical side of which is exposed only to air and that creates a mucin layer. Upon arrival, the cell transwell inserts were immediately transferred to individual wells of a 6-well plate according to manufacturer's instructions, and 1 mL of MatTek's proprietary culture medium (AIR-100-MM) was added to the basolateral side, whereas the apical side was exposed to a humidified 5% CO2 environment. Cells were cultured at 37° C. for one day before the start of the experiment. After the 24 hour equilibration period, the mucin layer, secreted from the apical side of the cells, was removed by washing with 400 μL pre-warmed 30 mM HEPES buffered saline solution 3×. Culture medium was replenished following the wash steps.
# Viruses: Virus was diluted in AIR-100-MM medium before infection, yielding a multiplicity of infection (MOI) of approximately 0.0015 CCID50 per cell.
# The cells were maintained at the air-liquid interface.
# Determination of virus titers from each treated cell culture: Vero 76 cells were seeded in 96-well plates and grown overnight (37° C.) to confluence. Samples containing virus were diluted in 10-fold increments in infection medium and 200 μL of each dilution transferred into respective wells of a 96-well microtiter plate. Four microwells were used for each dilution to determine 50% viral endpoints. After 5 days of incubation, each well was scored positive for virus if any cytopathic effect (CPE) was observed as compared with the uninfected control and counts were confirmed for endpoint on days 6 and 7. […] The day 5 values were reported. Untreated, uninfected cells were used as the cell controls.
# The antiviral activities of test compounds were evaluated against SARS-CoV-2 (USA-WA1/2020) using made to order human airway epithelial (HAE) cells.
# Cell Culture: HAE cells were grown on 6 mm mesh disks and arrived in kits with either 12- or 24-well transwell inserts. During transportation the tissues were stabilized on a sheet of agarose, which was removed upon receipt. One insert was estimated to consist of approximately 1.2×10^6 cells. Kits of cell inserts (EpiAirway™ AIR-100 or AIR-112) originated from a single donor, #9831, a healthy, non-smoking person. The cells form polarized monolayers, the apical side of which is exposed to air and creates a mucin layer. Upon arrival, the cell transwell inserts were immediately transferred to individual wells of a 6-well plate according to the manufacturer's instructions, and 1 mL of MatTek's proprietary culture medium (AIR-100-MM) was added to the basolateral side, whereas the apical side was exposed to a humidified 5% CO2 environment. Cells were cultured at 37° C. in a humidified atmosphere containing 5% CO2 for one day before the start of the experiment. After the 24-h equilibration period, the mucin layer, secreted from the apical side of the cells, was removed by washing with 400 μL pre-warmed 30 mM HEPES buffered saline solution 3×. Culture medium was replenished following the wash steps.
# Viruses: Virus was diluted in AIR-100-MM medium before infection to yield a MOI when added to cultures of approximately 0.0015 CCID50 per cell.
# Select compounds of the present invention were tested in a SARS-CoV-2 assay. […]
# [1] = system: human airway epithelial (HAE) cells
# [2] = system: human bronchial epithelial cells; details: 10 μM
# [3] = system: human nasal epithelial cells; details: 10 μM
# RSV = details: RSV-infected HAE cells; read-out: in vitro EC90; cited from earlier work
# HCV = details: HCV-infected subjects, up to 12 weeks; cited from earlier work
# [4] = Plasma PK in non-human primates after oral Compound 2A; details: monkey plasma, oral Compound 2A 60 mg/kg then 30 mg/kg every 12 h, steady state
# [5] = Severe acute respiratory syndrome coronavirus 2, HAE, SARS-CoV-2 in HAE (dNHBE) cells, Table 11, read-out: VYR Assay EC90
# [6] = Severe acute respiratory syndrome coronavirus 2, HAE, SARS-CoV-2, Table 11B, read-out: VYR Assay EC90
compound,measurement,setting,value
CCN(CCO)CCCC(C)Nc1ccnc2cc(Cl)ccc12 (stereo not drawn) [hydroxychloroquine],CC50,in vitro,26 µM
"CNc1nc(N)nc2c1ncn2[C@@H]1O[C@H](CO[P@@](=O)(N[C@@H](C)C(=O)OC(C)C)Oc2ccccc2)[C@@H](O)[C@]1(F)CO [Compound 9, Isopropyl ((S)-(((2R,3R,4R,5R)-5-(2-amino-6-(methylamino)-9H-purin-9-yl)-4-fluoro-3-hydroxy-4-(hydroxymethyl)tetrahydrofuran-2-yl)methoxy)(phenoxy)phosphoryl)-L-alaninate]",EC90,SARS-CoV-2 (WA1); [5],8.5 µM
same,VYR Assay CC50,[1],no visual tox
"Nc1ccn([C@@H]2O[C@@](CO)(CCl)[C@@H](O)[C@H]2F)c(=O)n1 [ALS-8112, reference compound]",ratio of triphosphate from Compound 1A vs. comparator,[2]; 8 h,2
same,ratio of triphosphate from Compound 1A vs. comparator,[2]; 15 h,5
same,ratio of triphosphate from Compound 1A vs. comparator,[3]; 8 h,1
same,ratio of triphosphate from Compound 1A vs. comparator,[3]; 15 h,3
same,EC90,RSV,1.3 to 2.7 µM
Cc1nc2nccnc2n1[C@@H]1O[C@H](COP(=O)(N[C@@H](C)C(=O)OC(C)C)Oc2ccccc2)[C@@H](O)[C@]1(F)C(F)(F)F (stereo partly drawn) [Compound 12],EC90,SARS-CoV-2 (WA1); [6],1.5 µM
"CNc1nc(N)nc2c1ncn2[C@@H]1O[C@H](CO[P@@](=O)(N[C@@H](C)C(=O)OC(C)C)Oc2ccccc2)[C@@H](O)[C@]1(F)CF [Compound 6, Isopropyl ((S)-(((2R,3R,4R,5R)-5-(2-amino-6-(methylamino)-9H-purin-9-yl)-4-fluoro-4-(fluoromethyl)-3-hydroxytetrahydrofuran-2-yl)methoxy)(phenoxy)phosphoryl)-L-alaninate]",EC90,SARS-CoV-2 (WA1); [5],1.8 µM
same,VYR Assay CC50,[1],no visual tox
"[2H]C([2H])([2H])[C@@]1(F)[C@H](O)[C@@H](CO[P@@](=O)(N[C@@H](C)C(=O)OC(C)C)Oc2ccccc2)O[C@H]1n1cnc2c(NC)nc(N)nc21 [Compound 5, Isopropyl ((S)-(((2R,3R,4R,5R)-5-(2-amino-6-(methylamino)-9H-purin-9-yl)-4-fluoro-3-hydroxy-4-methyltetrahydrofuran-2-yl)methoxy)(phenoxy)phosphoryl)-L-alaninate]",EC90,SARS-CoV-2 (WA1); [5],0.31 µM
same,VYR Assay CC50,[1],no visual tox
CNc1nc(N)nc2c1ncn2[C@@H]1O[C@H](CO[P@@](=O)(N[C@@H](C)C(=O)OC(C)C)Oc2ccccc2)[C@@H](O)[C@]1(F)C(F)(F)F [Compound 11A],EC90,"SARS-CoV-2 (WA1); Severe acute respiratory syndrome coronavirus 2, HAE, read-out: VYR Assay EC90, SARS-CoV-2 in HAE (dNHBE) cells, Table 11",3.7 µM
same,VYR Assay CC50,[1],no visual tox
CNc1nc(N)nc2c1ncn2[C@@H]1O[C@H](CO[P@@](=O)(N[C@@H](C)C(=O)OC(C)C)Oc2ccccc2)[C@@H](O)[C@@]1(C)F [Compound 2A],safety and tolerability,HCV,safe and well-tolerated
CC(C)OC(=O)[C@H](C)NP(=O)(OC[C@H]1O[C@@H](Oc2ncc(Br)nc2C(N)=O)[C@@](F)(C(F)(F)F)[C@@H]1O)Oc1ccccc1 (stereo partly drawn) [Compound 14],EC90,SARS-CoV-2 (WA1); [6],0.57 µM
CCN(CC)CCCC(C)Nc1ccnc2cc(Cl)ccc12 (stereo not drawn) [chloroquine],CC50,in vitro,21 µM
"C#C[C@@]1(F)[C@H](O)[C@@H](CO[P@@](=O)(N[C@@H](C)C(=O)OC(C)C)Oc2ccccc2)O[C@H]1n1cnc2c(NC)nc(N)nc21 [Compound 7, Isopropyl ((S)-(((2R,3R,4R,5R)-5-(2-amino-6-(methylamino)-9H-purin-9-yl)-4-ethynyl-4-fluoro-3-hydroxytetrahydrofuran-2-yl)methoxy)(phenoxy)phosphoryl)-L-alaninate]",EC90,SARS-CoV-2 (WA1); [5],3.2 µM
same,VYR Assay CC50,[1],no visual tox
CC(C)OC(=O)[C@H](C)N[P@](=O)(OC[C@H]1O[C@@](C#N)(n2ncc3c(N)ncnc32)[C@H](F)[C@@H]1O)Oc1ccccc1 [Compound 15],EC90,SARS-CoV-2 (WA1); [6],1.1 µM
Cc1ncc2ncn([C@@H]3O[C@H](COP(=O)(N[C@@H](C)C(=O)OC(C)C)Oc4ccccc4)[C@@H](O)[C@]3(F)C(F)(F)F)c2n1 (stereo partly drawn) [Compound 13],EC90,SARS-CoV-2 (WA1); [6],3.2 µM
"CC(C)OC(=O)[C@H](C)NP(=O)(OC[C@H]1O[C@@H](n2cnc3c(NC4CC4)nc(N)nc32)[C@@](F)(CO)[C@@H]1O)Oc1ccccc1 (stereo partly drawn) [Compound 10, Isopropyl ((((2R,3R,4R,5R)-5-(2-amino-6-(cyclopropylamino)-9H-purin-9-yl)-4-fluoro-3-hydroxy-4-(hydroxymethyl)tetrahydrofuran-2-yl)methoxy)(phenoxy)phosphoryl)-L-alaninate]",EC90,SARS-CoV-2 (WA1); [5],5.3 µM
same,VYR Assay CC50,[1],no visual tox
"CC(C)OC(=O)[C@H](C)N[P@](=O)(OC[C@H]1O[C@@H](n2ccc(=O)[nH]c2=O)[C@](C)(F)[C@@H]1O)Oc1ccccc1 [Sofosbuvir, reference compound]",EC90,SARS-CoV-2 (WA1); [5],> 19 µM
same,VYR Assay CC50,[1],no visual tox
"O=c1nc(NO)ccn1[C@@H]1O[C@H](CO)[C@@H](O)[C@H]1O [N^4-hydroxycytidine, reference compound]",Selectivity Index (CC50/EC90),"SARS-CoV-2 (WA1); SARS-CoV-2 in HAE, Table 5",>5.1
same,EC90,"SARS-CoV-2 (WA1); SARS-CoV-2 in HAE, footnotes f, g, h of Table 5, read-out: EC90, single replicates",3.1 µM
same,potency relative to Compound 1A (times less),"SARS-CoV-2 (WA1); SARS-CoV-2 in HAE, same experiment",8 times
"C[C@@]1(F)[C@H](O)[C@@H](CO)O[C@H]1n1cnc2c(=O)[nH]c(N)nc21 [Compound 1-7, 2-amino-9-((2R,3R,4R,5R)-3-fluoro-4-hydroxy-5-(hydroxymethyl)-3-methyltetrahydrofuran-2-yl)-1,9-dihydro-6H-purin-6-one]",Cmax,[4],160 nM
same,Tmax,[4],2 h
"C=C[C@@]1(F)[C@H](O)[C@@H](CO[P@@](=O)(N[C@@H](C)C(=O)OC(C)C)Oc2ccccc2)O[C@H]1n1cnc2c(NC)nc(N)nc21 [Compound 8, Isopropyl ((S)-(((2R,3R,4R,5R)-5-(2-amino-6-(methylamino)-9H-purin-9-yl)-4-fluoro-3-hydroxy-4-vinyltetrahydrofuran-2-yl)methoxy)(phenoxy)phosphoryl)-L-alaninate]",EC90,SARS-CoV-2 (WA1); [5],6.4 µM
same,VYR Assay CC50,[1],no visual tox
